# In patent publication US12570970B2, “Inorganic phosphate as a stabilizer for phytase enzymes” (DANISCO US INC, priority 2018, dated 2026):
# Structures can show the parent of a compound that is named as a salt.
# Experiments:
# BP-17 phytase [1] = experiment: Phytase melting temperature (Tm) in the presence of excipients, differential scanning fluorimetry (nanoDSF); type: physicochemical, Buttiauxella sp.
# Experimental: An experiment was performed to determine whether the addition of different excipients during thermal exposure increases the melting temperature of the phytase enzyme in the liquid state. Excipient solutions were prepared at their highest solubility, then titrated from highest to lowest concentrations prior to their addition to the phytase UFC. The enzyme/excipient combinations were then exposed to a temperature profile of 21-95° C., and the melting temperatures were measured via differential scanning fluorimetry. The concentration of phytase in the UFC was measured at 123.9 g/L via HPLC. […] A 20% phytic acid solution was prepared by dissolving 1 gram of phytic acid into 5 mL of 0.1 M acetate buffer pH 5.5. The pH was adjusted from 4.2 to 5.47 using 20% NaOH, and then the solution was filtered using a 0.45 μM syringeless filter. A 25% sodium sulfate anhydrous solution was prepared by dissolving 5 grams into 20 mL of water. The pH was adjusted to 5.6 using sulfuric acid, and then the solution was filtered using a 0.45 μM syringeless filter. A 20% sodium polyphosphate solution was prepared by dissolving 5 grams into 25 mL of water. The pH was adjusted to 5.6 using concentrated phosphoric acid, and then the solution was filtered using a […] syringeless filter. […] The pH was adjusted to 5.6 using 80% citric acid, and then the solution was filtered using a 0.45 μM syringeless filter. A 20% sodium phosphate dibasic solution was prepared by dissolving 2 grams into 10 mL of water. The pH was adjusted to 5.6 using concentrated phosphoric acid, and then the solution was filtered using a 0.45 μM syringeless filter. A volume of 100 μL of an excipient stock solution was added to well A in column 1 of a 96-well plate. A volume of 50 μL of water was added to each well B-H in column 1 of the same 96-well plate. The excipient stock solution was titrated 2-fold down the column of the plate by transferring 50 μL into each subsequent well. A volume of 80 μL of the pH adjusted UFC was added to each of the wells in column 1 of a new 96-well plate. A volume of 20 μL was transferred from each well of the titrated excipient directly into the corresponding well containing the UFC. The 96-well plate containing the enzyme and excipient combinations was mixed on a plate shaker for 5 seconds. Standard capillaries for the nanoDSF were filled by dipping a capillary in each well of the 96-well plate, and then loading onto the Nanotemper instrument. The Nanotemper instrument was programmed to run at 10% excitation power and 21-95° C. with a 1° C./minute ramp. The Nanotemper instrument monitors the shift of intrinsic tryptophan fluorescence of proteins upon unfolding by measuring wavelengths at 330 and 350 nm.
# BP-17 phytase [2] = experiment: Thermal inactivation of BP-17 phytase at 70° C. in the presence of stabilizing salts, residual activity by colorimetric assay; type: biochemical, Buttiauxella sp.; conditions: for phytase activity state: 70° C.
# Experimental: An experiment was performed to determine whether the addition of excipients during thermal stress conditions allows the phytase enzyme to retain its activity. A temperature was selected at which the phytase enzyme is completely inactivated in the absence of excipient after 30-minutes incubation. Excipient solutions were prepared at their highest solubility. then titrated from highest to lowest concentrations prior to their addition to the phytase UFC. The enzyme/excipient combinations were then exposed to a temperature of 70° C., and the residual activity was measured after 2, 5, 10, 20, 30, and 60-minutes incubation via a colorimetric activity assay
# A 20% (or 1.41 M) sodium phosphate solution was prepared by dissolving 5 grams of sodium phosphate dibasic anhydrous into 25 mL of water. The pH was adjusted to 5.5 using concentrated phosphoric acid. A 25% (or 0.85 M) sodium citrate solution was prepared by dissolving 5 grams of sodium citrate dihydrate into 20 mL of water. The pH was adjusted to 5.5 using 80% citric acid.
# A volume of 80 μL of the 20% sodium phosphate stock solution was added to the first well of 8 different 12-well PCR strips. A volume of 40 μL of −Q water was added to wells 2, 3. 4, 5, and 6 of each PCR strip. The sodium phosphate stock solution was serially diluted 2-fold sequentially from well 1 to well 6. A volume of 80 μL of the 25% sodium citrate stock solution was added to well 7 of each PCR strip. A volume of 40 μL of water was added to wells 8, 9, 10, 11, and 12 of each PCR strip. The sodium citrate stock solution was serially diluted 2-fold sequentially from well 7 to well 11, leaving well 12 to contain water only. The BP-17 phytase UFC was diluted 50-fold in autoclaved water. A volume of 40 μL of the diluted UFC was added to each well of the 8 different 12-well PCR strips containing the diluted excipients.
# The temperature cycler was programmed to a temperature of 70° C. One PCR strip was sealed and placed immediately on ice for the time zero measurement. The remaining PCR strips were sealed, placed inside the PCR, incubated for varying increments of time (0.5, 2, 5, 10, 20, 30, and 60 minutes), then removed from the PCR and placed immediately on ice. After each of the PCR strips had been collected on ice, they were placed on a 96-well PCR tube rack and centrifuged for 2 minutes at 3500 rpm.
# As some precipitation occurred during thermal inactivation, the PCR strips were subjected to centrifugation and the supernatant was removed and diluted with assay buffer (0.1 M acetate Buffer pH 5.5+0.05% w/v Tween 20) to a final activity of 0.012 FTU/mL in a non-binding (Corning 3641) 96-well plate. A volume of 40 μL was transferred from the enzyme dilution plate into a separate reaction plate (Costar 9017, medium binding). A volume of 40 μL of substrate (150 μM sodium phytate) was then added to each of the wells of the reaction plate. The reaction plate was sealed and incubated for 10 minutes at 25° C. and 900 rpm. A volume of 170 μL of Pi Blue stop/color reagent (POPB-500 by BioAssay Systems US) was then added to each well of the reaction plate to stop the reaction. The plate was sealed and incubated for 30 minutes at 25° C. and 400 rpm for color development, then read in a spectrophotometer at 620 nm.
# BP-17 phytase [3] = experiment: Mechanism of inhibition: phytase activity with titrated substrate and titrated excipient (PNPP assay); type: biochemical, Buttiauxella sp.; conditions: ambient assay conditions (25° C.)
# Experimental: Kinetic analysis was performed to determine the mechanism of stabilization of both the sodium phosphate and sodium citrate with respect to the phytase enzyme by measuring the activity of phytase in the presence of both titrated substrate and titrated excipient concentrations.
# The BP-17 phytase UFC was diluted 7,000-fold in 0.1 M acetate buffer pH 5.5.
# The substrate stock solution (400 mM) was prepared by dissolving 0.923 grams of 4-nitrophenyl phosphate di (tris) salt into 5 mL of 0.25 M acetate buffer pH 5.5. A volume of 200 μL of the substrate stock solution was added to columns 1 and 7 of a 96-well plate. A volume of 100 μL of 0.25 M acetate Buffer pH 5.5 was added to columns 2-6 and 8-12 of the same 96-well plate. Serial dilutions were performed by transferring 100 μL from column 1 into column 2 of the 96-well plate, and then repeating this dilution pattern across the plate to column 6 so that the following substrate concentrations were made: 400, 200, 100, 50, 25, and 12.5 mM. The same serial dilutions were performed across the second half of the plate from columns 7 to 12.
# A 20% (or 1.41 M) sodium phosphate solution was prepared by dissolving 5 grams of sodium phosphate dibasic anhydrous into 25 mL of 0.1 M acetate buffer pH 5.5. […]
compound,measurement,setting,value
"O=P(O)(O)O[C@H]1[C@H](OP(=O)(O)O)[C@@H](OP(=O)(O)O)[C@H](OP(=O)(O)O)[C@@H](OP(=O)(O)O)[C@H]1OP(=O)(O)O [sodium phytate, Phytic acid sodium salt hydrate, reference compound]",increase in Tm of phytase,"BP-17 phytase [1]; molar ratio of 14:1 sodium phytate to phytase, phytase UFC, liquid state, FIG. 1",approximately 2.7 °C
"O=P([O-])([O-])O.[Na+].[Na+] [sodium phosphate, Sodium phosphate, dibasic, anhydrous]",relative residual phytase activity retained,"BP-17 phytase [2]; 352 mM sodium phosphate, 60-minutes incubation at 70° C., FIG. 6",approximately 90%
same,phytase activity retained,"BP-17 phytase [2]; half of 352 mM sodium phosphate, 60-minutes incubation at 70° C., FIG. 6",approximately 60%
same,phytase activity state,"BP-17 phytase [2]; sodium phosphate below half of 352 mM, FIG. 6",nearly inactivated
same,phytase activity in presence of excipient and substrate,"BP-17 phytase [3]; 150 mM sodium phosphate and 100 mM phytic acid substrate, FIG. 8",very little activity
same,stabilizing effect on Tm compared with other excipients,"BP-17 phytase [1]; equivalent molar ratios to the phytase, normalized for anion equivalents, FIG. 4","greater than that of sodium phytate, sodium polyphosphate, and sodium sulfate"
same,increase in melting temperature of phytase,"BP-17 phytase [1]; molar ratio of 130:1 sodium phosphate to phytase, phytase UFC, liquid state, FIGS. 2 and 3",approximately 5.5 °C
same,increase in melting temperature compared with citrate,"BP-17 phytase [1]; normalized for charge equivalents, FIG. 5",much higher
"O.O.O=C([O-])CC(O)(CC(=O)[O-])C(=O)[O-].[Na+].[Na+].[Na+] [sodium citrate, Sodium citrate dihydrate, reference compound]",phytase activity retained,"BP-17 phytase [2]; 425 mM sodium citrate, 60-minutes incubation at 70° C., FIG. 7",approximately 90%
same,phytase activity retained,"BP-17 phytase [2]; half of 425 mM sodium citrate, 60-minutes incubation at 70° C., FIG. 7",≤ 50%
same,phytase activity state,"BP-17 phytase [2]; sodium citrate below half of 425 mM, FIG. 7",inactivated
same,excipient concentration at which phytase activity loss levels out,"BP-17 phytase [3]; increasing phytic acid substrate, FIG. 9",≥ 26 mM
